Experimental data as given in patent US20200031820A1, “3-CARBOXYLIC ACID PYRROLES AS NRF2 REGULATORS” (GLSXOSMITHKLINE INTELLECTUAL PROPERTY DEVELOPMENT LIMITED, priority 2016, published 2020).

Test system: NQO1 specific enzyme activity in BEAS-2B cells (marker for NRF2 activation)
Assay: Beas2B NQO1 MTT Assay
Type: cell-based
Conditions: Homo sapiens, NQO1 specific activity induction, 48 hours with compound
Source text: NAD(P)H:quinone oxidoreductase 1 (NQO1), also called DT diaphorase, is a homodimeric FAD-containing enzyme that catalyses obligatory NAD(P)H-dependent two-electron reductions of quinones and protects cells against the toxic and neoplastic effects of free radicals and reactive oxygen species arising from one-electron reductions. The transcription of NQO1 is finely regulated by NRF2, and thus NQO1 activity is a good marker for NRF2 activation. On day one, frozen BEAS-2B cells (ATCC) were thawed in a water bath, counted, and re-suspended at a concentration of 250,000 cells/mL. Fifty microliters of cells were plated in 384 well black clear-bottomed plates. Plates were incubated at 37° C., 5% CO2 overnight. On day two, plates were centrifuged and 50 nL of compound or controls were added to the cells. Plates were then incubated at 37° C., 5% CO2 for 48 hours. On day four, medium was aspirated from the plate and crude cell lysates were made by adding 13 uL of 1× Cell Signaling Technologies lysis buffer with 1 Complete, Mini, EDTA-free Protease Inhibitor Tablet (Roche) for each 10 mL of lysis buffer. After lysis plates were incubated for 20 minutes at room temperature. Two microliters of lysate were removed for use in Cell Titer Glo assay (Promega) and MTT cocktail was prepared (Prochaska et. al. 1998) for measurement of NQO1 activity. Fifty microliters of MTT cocktail was added to each well, plate was centrifuged, and analysed on an Envision plate reader (Perkin Elmer) using Absorbance 570 nm label for 30 minutes. Product formation was measured kinetically and the pEC50 of NQO1 specific activity induction was calculated by plotting the change in absorbance (Delta OD/min) versus the log of compound concentration followed by 3-parameter fitting.
EC50s <1 nM (+++++), EC50s 10 nM-1 nM (++++), EC50s 10-100 nM (+++), EC50s 100 nM-1 μM (++), EC50s 1-10 μM (+), EC50s >10 μM (−), or were not determined (ND).

Row | SMILES | EC50 [nM]
1 | C[C@H]1Cc2ccc(C(F)(F)F)cc2S(=O)(=O)N(Cc2cccc(-n3ccc(C(=O)O)c3[C@@H]3C[C@H]3c3cn(C)nn3)c2)C1 [Example 4, 1-(3-(((S)-4-methyl-1,1-dioxido-8-(trifluoromethyl)-4,5-dihydrobenzo[f][1,2]thiazepin-2(3H)-yl)methyl)phenyl)-2-((1R,2R)-2-(1-methyl-1H-1,2,3-triazol-4-yl)cyclopropyl)-1H-pyrrole-3-carboxylic acid] | 1 to 10
2 | C[C@H](Oc1cccc(-c2cccc(-n3ccc(C(=O)O)c3[C@@H]3C[C@H]3c3cn(C)nn3)c2)c1)C1CCCCC1 [Example 18, 1-(3′-((S)-1-cyclohexylethoxy)-[1,1′-biphenyl]-3-yl)-2-((1R,2R)-2-(1-methyl-1H-1,2,3-triazol-4-yl)cyclopropyl)-1H-pyrrole-3-carboxylic acid] | 10 to 100
3 | CCC[C@@H]1CCCCN1C(=O)c1cccc(-c2cccc(-n3ccc(C(=O)O)c3[C@@H]3C[C@H]3c3cn(C)nn3)c2)c1F [Example 16, 1-(2′-fluoro-3′-((R)-2-propylpiperidine-1-carbonyl)-[1,1′-biphenyl]-3-yl)-2-((1R,2R)-2-(1-methyl-1H-1,2,3-triazol-4-yl)cyclopropyl)-1H-pyrrole-3-carboxylic acid] | 1 to 10
